Laboratory results taken from ChEMBL document CHEMBL1152228, “Using proton nuclear magnetic resonance to study the mode of ribonuclease A inhibition by competitive and noncompetitive inhibitors” (Bioorg Med Chem Lett, 2008).

Biological target: T1, Ribonuclease pancreatic (Homo sapiens, UniProt P07998)
T1 sequence (P07998 whole entry): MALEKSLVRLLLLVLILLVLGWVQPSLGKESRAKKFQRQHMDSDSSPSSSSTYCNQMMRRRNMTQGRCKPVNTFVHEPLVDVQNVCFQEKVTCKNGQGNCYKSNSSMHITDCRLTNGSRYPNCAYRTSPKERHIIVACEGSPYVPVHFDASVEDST
Assay: Inhibition of ribonucleolytic activity of RNase A by agarose gel based assay

SMILES | Ki [µM]
O=C(O)C1CCN([C@H]2[C@H](O)[C@H](n3ccc(=O)[nH]c3=O)O[C@@H]2CO)CC1 | 103
CCOC(=O)C1CCN([C@H]2[C@H](O)[C@H](n3ccc(=O)[nH]c3=O)O[C@@H]2CO)CC1 | 120
